Test results: US5401743A, “Aminoalkyl-substituted 2-amino-5-mercaptothiadiazoles the preparation and use thereof” (BASF Aktiengesellschaft, priority 1991, dated 1995)
Where a name gives a salt, the structure may show the parent alone. Read-outs that look alike come from different tables or passages of the source.

Target: T1, dopamine D2 receptor (Rattus norvegicus, UniProt P61169)
T1 construct: Striata from rats (Sprague Dawley, Charles River) were homogenized immediately after removal; from tissue; host or cells: rat striatum (Sprague Dawley, Charles River), membranes
T1 sequence (P61169 whole entry): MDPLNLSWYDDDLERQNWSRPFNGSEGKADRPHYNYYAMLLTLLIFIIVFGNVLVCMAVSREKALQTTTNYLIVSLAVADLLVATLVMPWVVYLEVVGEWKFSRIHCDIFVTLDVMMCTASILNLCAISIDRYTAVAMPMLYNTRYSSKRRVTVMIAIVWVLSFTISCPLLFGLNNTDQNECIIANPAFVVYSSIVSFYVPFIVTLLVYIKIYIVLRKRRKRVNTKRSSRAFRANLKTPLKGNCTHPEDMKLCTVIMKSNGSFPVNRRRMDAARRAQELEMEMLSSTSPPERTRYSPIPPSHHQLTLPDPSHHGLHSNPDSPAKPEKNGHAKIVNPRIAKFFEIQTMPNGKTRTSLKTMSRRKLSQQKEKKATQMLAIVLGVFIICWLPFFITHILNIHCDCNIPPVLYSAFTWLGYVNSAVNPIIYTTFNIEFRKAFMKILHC
Assay: Receptor binding assay: affinity for the dopamine D2 receptor (3H-ADTN displacement, rat striatal membranes)
Parameters: species or system rat (Sprague Dawley)
Method: The effects of the novel compounds can be shown in the receptor binding assay as follows:
Striata from rats (Sprague Dawley, Charles River) were homogenized immediately after removal in 0.32M sucrose solution (0° C.). The homogenate was filtered through gauze, the filtrate was centrifuged at 1000 xg (5 min at 4° C.) and the resulting supernatant was centrifuged at 40000 xg (4° C., 10 min). The residue (membranes) was taken up in incubation buffer (50 mM tris-HCl, 1 mM MgCl2 and 0.1% ascorbic acid, pH 7.4) and incubated at 37° C. for 20 min. The residue was subsequently washed 2× with incubation buffer by resuspension and recentrifugation. The membranes were frozen in portions in liquid nitrogen.
The assay mixtures (1 ml) were composed of membranes (380 μg of protein), 1 nM ^3 H-ADTN (NEN, Dreieich Germany, specific radioactivity 1.4 TBq/mmol) and 0.1 μM SCH 23390 (total binding) or a) with the addition of 50 nM spiperone (non-specific binding) or b) with test substance. The mixtures were prepared in triplicate.
After the incubation (40 min at 25° C.) the mixtures were filtered through glass fiber filters (Whatman GF/B) and briefly washed with ice-cold washing buffer (Tris-HCl, pH 7.4). The radioactivity retained on the filters was determined by liquid scintillation counting. The non-specific binding comprised about 40-50% of the total binding.
The evaluation of the competition plots and the determination of the dissociation constant took place by iterative non-linear regression analysis based on the "ligand" program (Muson and Rodbard: Anal. Biochem. 107 (1980) 220).
Affinity of the test substances for the dopamine D2 receptor

[1] = rat striatal membranes, 1 nM 3H-ADTN, 0.1 μM SCH 23390, 40 min at 25° C., pH 7.4, non-specific binding with 50 nM spiperone, read-out: Ki (affinity of the test substances for the dopamine D2 receptor)

Compound	Ki [1]	Ki
CCOc1ccccc1N1CCN(CCSc2nnc(N)s2)CC1 [Example 11, 2-Amino-5-[2-(4-(2-ethoxyphenyl)piperazinyl)ethylthio]-1,3,4-thiadiazole hydrochloride]	15 nM	
Nc1nnc(SCCN2CCC(c3ccccc3)CC2)s1 [Example 8, 2-Amino-5-[2-(4-phenylpiperidinyl)ethylthio]-1,3,4-thiadiazole hydrochloride]	45 nM	
Nc1nnc(SCCCN2CC=C(c3ccccc3)CC2)s1 [Example 4, 2-Amino-5-[3-(4-phenyl-1,2,3,6-tetrahydropyridyl)-propylthio]-1,3,4-thiadiazole hydrochloride]		6 nM
Cc1cccc(N2CCN(CCCSc3nnc(N)s3)CC2)c1 [Example 14, 2-Amino-5-[3-(4-(3-methylphenyl)piperazinyl)propylthio]-1,3,4-thiadiazole hydrochloride]	36 nM	
Nc1nnc(SCCCN2CCN(c3ccc(F)cc3)CC2)s1 [Example 1, 2-Amino-5-[3-(4-fluorophenylpiperazinyl)propylthio]-1,3,4-thiadiazole dihydrochloride]	125 nM	
Nc1nnc(SCCN2CC=C(c3ccccc3)CC2)s1 [Example 3, 2-Amino-5-[2-(4-phenyl-1,2,3,6-tetrahydropyridyl)-ethylthio]-1,3,4-thiadiazole dihydrochloride]		12 nM
CCCN(CCCSc1nnc(N)s1)CCc1ccccc1 [Example 9, 2-Amino-5-[3-(2-phenylethyl-n-propylamino)propylthio]-1,3,4-thiadiazole tartrate]	45 nM	
